Reference: patent US20040076974A1, “Liver necrosis predictive genes” (priority 2002, published 2004)
Values joined by “and” are separate entries in the source; they are usually repeats but may differ in a detail not shown here. Equal values may be shown once. Read-outs that look alike come from different tables or passages of the source.

Columns and labels:
Sprague Dawley rats = system: Sprague Dawley rats
Summary of the method: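 Toxicity calls (necrosis present or absent at 72 h) and histopathology scores were correlated with tissue gene expression from Crl:CD Sprague Dawley rats. Animals, usually 3 treated with compound by i.p. route and 3 given vehicle, were killed at 6, 24 or 72 h and tissues frozen immediately in liquid nitrogen.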

[1] = system: toxicologically relevant rat genes (rat CT array)
[2] = 24 h, treatment/control, dose 2, listed as CHEX

With `C[C@@H]1C[C@@H]([C@H](O)CC2CC(=O)NC(=O)C2)C(=O)[C@@H](C)C1` [cycloheximide] the “Liver Toxicity Necrosis Classification” value (Sprague Dawley rats; 72 h, dose 0.5) was “no”, the “Liver Toxicity Necrosis Classification” value (Sprague Dawley rats; 72 h; dose 2; animals 2257-2259) was “no” and the “Liver Toxicity Necrosis Classification” value (Sprague Dawley rats; compound-dose group CHEX 0.5; at 72 h) was “no”. The “Liver Toxicity Necrosis Classification” value (Sprague Dawley rats; compound-dose group CHEX 2; at 72 h) was “no”, the “Liver Toxicity Necrosis Classification” value (Sprague Dawley rats; compound-dose group at 72 h, dose 0.5) was “no” and the “Liver Toxicity Necrosis Classification” value (Sprague Dawley rats; compound-dose group at 72 h, dose 2) was “no”. For the same molecule, the “Liver Toxicity Necrosis Classification” value (Sprague Dawley rats; compound-dose group at 72 h; dose 2) was “no”, the “Liver Necrosis” value (Sprague Dawley rats; rat, intraperitoneal, dose 0.5 mg/kg, 72 hours after treatment) was “no” and the “Score (histopathology liver necrosis severity score)” value (Sprague Dawley rats; rat, intraperitoneal, dose 0.5 mg/kg, 72 hours; 1 = not remarkable, 2 and higher increasing severity) was 1. For the same molecule, the “Liver Necrosis” value (Sprague Dawley rats; rat, intraperitoneal, dose 2 mg/kg, 72 hours after treatment) was “no”, the “Score (histopathology liver necrosis severity score)” value (Sprague Dawley rats; rat, intraperitoneal, dose 2 mg/kg, 72 hours; 1 = not remarkable, 2 and higher increasing severity) was 1 and the “Aflatoxin B1 aldehyde reductase expression” value ([1]; 24 h) was 0.3081 and 0.5569. For the same molecule, the 3-hydroxyisobutyrate dehydrogenase expression [1, 2] was 0.7822 and 0.6854, the 14-3-3 zeta expression [1, 2] was 1.308 and 1.217 and the “17-beta hydroxysteroid dehydrogenase, type 2 expression” value [1, 2] was 0.8086 and 0.8289. The “60S ribosomal protein L6 expression” value [1, 2] was 4.046 and 3.164, the “ATPase inhibitor (rat mitochondrial IF1 protein) expression” value [1, 2] was 1.104 and the “Alpha 1 - inhibitor III expression” value [1, 2] was 0.1985 and 0.3033. For the same molecule, the Alpha-2-macroglobulin expression [1, 2] was 8.537 and 10.8864, the “Bax (alpha) expression” value [1, 2] was 3.909 and 3.079 and the Beta-actin expression [1, 2] was 1.582. For the same molecule, the “Calpactin I heavy chain expression” value [1, 2] was 1.21 and 1.278, the “Carbamyl phosphate synthetase I expression” value [1, 2] was 2.339 and 1.425 and the “Carbonic anhydrase III expression” value [1, 2] was 0.09817 and 0.117. The “Cathepsin L, sequence 2 expression” value [1, 2] was 3.293 and 1.752, the “Dynamin-1 (D100) expression” value [1, 2] was 0.7964 and 0.6968 and the “Epidermal growth factor expression” value [1, 2] was 0.7851 and 0.8391. For the same molecule, the “Equilbrative nitrobenzylthioinosine-sensitive nucleoside transporter expression” value [1, 2] was 0.434 and 0.4974, the Fas antigen expression [1, 2] was 1.655 and 1.544 and the Gadd45 expression [1, 2] was 1.068 and 0.9225. The Gadd153 expression [1, 2] was 2.348 and 2.179, the “Gamma-actin, cytoplasmic expression” value [1, 2] was 2.831 and 2.8 and the “Glucose-regulated protein 78 expression” value [1, 2] was 1.943. The Hepatic lipase expression [1, 2] was 0.425 and 0.4085, the ID-1 expression [1, 2] was 1.831 and 1.476 and the “Insulin-like growth factor I expression” value [1, 2] was 0.632 and 0.7238. For the same molecule, the “Insulin-like growth factor binding protein 1 expression” value [1, 2] was 1.891, the “Insulin-like growth factor binding protein 3 expression” value [1, 2] was 0.6015 and 0.8706 and the “Integrin beta1 expression” value [1, 2] was 1.973 and 1.549. For the same molecule, the L-gulono-gamma-lactone oxidase expression [1, 2] was 0.1815 and 0.3251, the “Matrin F/G expression” value [1, 2] was 0.6684 and 0.8266 and the “Monocyte chemotactic protein receptor (CCR2) expression” value [1, 2] was 1.356. The “Organic anion transporter 3 expression” value [1, 2] was 0.6196 and 0.8226, the “Organic cation transporter 3 expression” value [1, 2] was 3.288 and 2.799 and the Ornithine decarboxylase expression [1, 2] was 1.809 and 2.529. The “PAR interacting protein expression” value [1, 2] was 2.494 and 1.775, the “Phase-1 RCT 252 expression” value [1, 2] was 2.109 and the “Phase-1 RCT-15 expression” value [1, 2] was 2.098. For the same molecule, the “Phase-1 RCT-36 expression” value [1, 2] was 0.9535, the “Phase-1 RCT-38 expression” value [1, 2] was 0.8074 and 1.436 and the “Phase-1 RCT-40 expression” value [1, 2] was 0.5868 and 0.6253. The “Phase-1 RCT-48 expression” value [1, 2] was 0.8259, the “Phase-1 RCT-50 expression” value [1, 2] was 3.394 and 1.867 and the “Phase-1 RCT-78 expression” value [1, 2] was 0.6678 and 0.6463. For the same molecule, the “Phase-1 RCT-83 expression” value [1, 2] was 0.7709 and 0.5883, the “Phase-1 RCT-88 expression” value [1, 2] was 0.5622 and 0.699 and the “Phase-1 RCT-89 expression” value [1, 2] was 0.3912 and 0.666. The “Phase-1 RCT-92 expression” value [1, 2] was 0.5483 and 0.6236, the “Phase-1 RCT-102 expression” value [1, 2] was 0.1629 and 0.3219 and the “Phase-1 RCT-117 expression” value [1, 2] was 0.5435 and 0.8114. The “Phase-1 RCT-128 expression” value [1, 2] was 0.7358 and 0.5601, the “Phase-1 RCT-137 expression” value [1, 2] was 0.897 and the “Phase-1 RCT-144 expression” value [1, 2] was 1.698 and 1.552. For the same molecule, the “Phase-1 RCT-145 expression” value [1, 2] was 1.962 and 1.531, the “Phase-1 RCT-152 expression” value [1, 2] was 3.068 and 2.149 and the “Phase-1 RCT-179 expression” value [1, 2] was 1.874 and 1.726. For the same molecule, the “Phase-1 RCT-180 expression” value [1, 2] was 1.992 and 1.731, the “Phase-1 RCT-182 expression” value [1, 2] was 0.648 and 0.4739 and the “Phase-1 RCT-189 expression” value [1, 2] was 0.7556 and 0.7413. The “Phase-1 RCT-207 expression” value [1, 2] was 3.54 and 2.206, the “Phase-1 RCT-213 expression” value [1, 2] was 2.298 and 1.558 and the “Phase-1 RCT-241 expression” value [1, 2] was 2.805 and 1.626. For the same molecule, the “Phase-1 RCT-256 expression” value [1, 2] was 0.7478, the “Phase-1 RCT-264 expression” value [1, 2] was 0.3258 and 0.288 and the “Phase-1 RCT-270 expression” value [1, 2] was 0.3824 and 0.3779. For the same molecule, the “Phase-1 RCT-271 expression” value [1, 2] was 0.6863 and 0.7351, the “Phase-1 RCT-288 expression” value [1, 2] was 0.7066 and 0.6813 and the “Phase-1 RCT-291 expression” value [1, 2] was 0.9117. For the same molecule, the “Phase-1 RCT-295 expression” value [1, 2] was 1.809 and 1.772, the “Phase-1 RCT-296 expression” value [1, 2] was 0.1325 and 0.1028 and the “Ribosomal protein L13A expression” value [1, 2] was 3.222 and 2.597. For the same molecule, the “Ribosomal protein S17 expression” value [1, 2] was 3.701 and 3.311, the “Sodium/bile acid cotransporter expression” value [1, 2] was 0.2803 and 0.3733 and the Transthyretin expression [1, 2] was 0.3341 and 0.2879. The “Ubiquitin conjugating enzyme (RAD 6 homologue) expression” value [1, 2] was 1.788 and 1.624, the c-jun expression [1, 2] was 1.591 and 1.111 and the c-myc expression [1, 2] was 1.683 and 1.143. For the same molecule, the “Paraoxonase 1 expression” value ([1]; rat, in vivo) was 0.4607 and 0.4822.
